Laboratory results taken from patent US20050014268A1, “Genetic transformation using a PARP inhibitor” (Bayer BioScience NV, priority 1995, published 2005).

System: cultured cells
Assay: Optimal concentration of PARP inhibitor in the culture medium
Type: cell-based
Conditions: i.e. about 2 mM; incubation not longer than 14 days
Description: The concentration of the PARP inhibitor in the medium is also believed to have an effect on the inhibition of PARP, which varies depending on the nature of the cells (species, tissue explant, general culture conditions, etc.) However, within certain concentration ranges, the effect is minimal, especially when the cultured cells are not incubated for longer than 14 days. The optimal concentration range of PARP inhibitor in the medium may vary depending on the species from which the tissue, cell or cell culture is derived, but 250 mg/l (about 2 mM) is believed to be a suitable concentration for many purposes (e.g. for use with material derived from wheat). However, when nicotinamide is used in combination with plant material derived from rice, the concentration of nicotinamide should preferably be between 500 mg/l (about 4 mM) and 1000 mg/l (approx. 8 mM). On the other hand, when nicotinamide is used in combination with plant material derived from corn, the concentration of nicotinamide should preferably be 100 mg/l. […] The optimal concentration will depend on the nature of the specific PARP inhibitor used, particularly on its strength of inhibition (as measured by its Ki and/or by its percentage inhibition of PARP under standard conditions—Sims et al, supra). […]

For `NC(=O)c1cccnc1` [niacinamide], the “optimal concentration in the culture medium” value was “approximately 250 mg/l”.
